“Also recorded” adds a separate entry of the source.
What was measured:
mouse kidney = assay: MALDI-MSI localization in mouse kidney after IV administration; details: tail vein injection of parent drug, compared between voclosporin and cyclosporine A species
Procedure: Kidneys were cryosectioned and covered with a matrix for MALDI-MSI analysis. The sample was measured in a raster process in the mass spectrometer, resulting in a spatially resolved mass spectra. The detected molecules were visualized as a color intensity map (m/z 0%-100%). Histological staining of the sample was then performed. Histological staining and the MALDI-MSI measurements of the same sample were co-registered.

[1] = test system: subjects with lupus nephritis; assay: 24-hour urinary electrolyte excretion concentrations in the lupus nephritis trial; format: in vivo, human; details: for Potassium urinary excretion concentration, change from baseline, mean ± SEM / Sodium urinary excretion concentration, change from baseline, mean ± SEM: baseline to one year, 24-hour urine
Description: Twenty-four-hour urine samples from 60 patients in each treatment arm were selected for urinary analysis of electrolytes. […] The mean change from baseline to one year in magnesium, potassium and sodium were presented as 24-hour urinary excretion concentrations.

LN [2] = assay: Low dosage protocol: clinical studies similar to Example 1, dosage reduced to 15.8 or 7.9 mg BID; format: in vivo, human
[3] = test system: subjects with biopsy-proven active lupus nephritis; assay: Pooled Phase 2 and Phase 3 lupus nephritis studies: complete renal response rate; format: in vivo, human; details: pooled data
Description: (§1) All patients were concurrently administered mycophenolate mofetil (MMF) (target 1 g BID) and rapidly-tapered, low-dose steroids.

LN [4] = assay: 48 week study of LN treatment: voclosporin plus MMF and oral corticosteroids, with pharmacodynamic (eGFR-guided) dosing; format: in vivo, human; details: for Patients with CR at 24 weeks / Patients with CR at 48 weeks / Patients with PR at 24 weeks / Patients with PR at 48 weeks: patients with no dose reduction
Procedure: The study was conducted over a period of 48 weeks and safety was evaluated at 24 weeks.
Subjects were assessed after 24 weeks and 48 weeks as well as a subsequent evaluation at 50 weeks.
PR is a composite end-point that includes safety and efficacy: UPCR reduction of 50% from baseline and no use of rescue medication.
To determine the efficacy of the pharmacodynamics protocol wherein dosage is reduced or stopped according to the presence or absence of indicators of the decrease in eGFR experienced as a side effect, these three groups of patients were assessed after 24 weeks and 48 weeks of treatment in consideration of whether treatment was altered according to the invention protocol.
PR is defined as UPCR reduction of 50% from baseline and no use of rescue medication.

[5] = test system: patients with lupus nephritis; details: patients treated with voclosporin; cited from earlier work
[6] = test system: subjects with lupus nephritis; assay: Long-term continuation study: adverse events; format: in vivo, human
[7] = test system: subjects with active lupus nephritis; assay: Double-blind randomized controlled trial in active lupus nephritis: complete renal response; format: in vivo, human; details: at one year
[8] = test system: subjects with lupus nephritis; assay: Long-term continuation study: eGFR, UPCR, oral steroid dose; format: in vivo, human; details: for Corrected eGFR, mean / UPCR, mean: N = 116
subjects with LN = assay: Pooled Phase 2 and Phase 3 lupus nephritis studies: fasting lipid profile; format: in vivo, human
Procedure: as §1
Fasting total cholesterol, low-density lipoprotein cholesterol (LDL), high-density lipoprotein cholesterol (HDL), and triglycerides were measured at baseline and at a one year follow-up in a central, CLIA-certified laboratory.

[9] = any subgroup, either treatment arm, one year
[10] = High Dose 39.5 mg BID, 24 weeks, n=88
[11] = High Dose 39.5 mg BID, 48 weeks, n=88
[12] = High Dose 39.5 mg BID, patients with dose reductions (pharmacodynamically dosed)
[13] = Low Dose 23.7 mg BID, 48 weeks, n=89
[14] = Low Dose 23.7 mg BID, patients with dose reductions (pharmacodynamically dosed)
[15] = low dosage 23.7 mg BID + MMF + corticosteroids, whole group
[16] = change from baseline to one year

C=C/C=C/C[C@@H](C)[C@@H](O)[C@H]1C(=O)N[C@@H](CC)C(=O)N(C)CC(=O)N(C)[C@@H](CC(C)C)C(=O)N[C@@H](C(C)C)C(=O)N(C)[C@@H](CC(C)C)C(=O)N[C@@H](C)C(=O)N[C@H](C)C(=O)N(C)[C@@H](CC(C)C)C(=O)N(C)[C@@H](CC(C)C)C(=O)N(C)[C@@H](C(C)C)C(=O)N1C [voclosporin]
distribution, accumulation and intensity in the kidney (MALDI-MSI) (mouse kidney): relatively weak throughout the kidney, particularly in the cortex; also recorded: do not accumulate at high concentrations in the kidney | Potassium urinary excretion concentration, change from baseline, mean ± SEM ([1]; Non-responders, n = 32): -2.48 ± 4.806 mmol/L | Sodium urinary excretion concentration, change from baseline, mean ± SEM ([1]; Non-responders, n = 32): -23.0 ± 12.69 mmol/L | Potassium urinary excretion concentration, change from baseline, mean ± SEM ([1]; Responders, n = 28): -6.38 ± 24.0 mmol/L | Sodium urinary excretion concentration, change from baseline, mean ± SEM ([1]; Responders, n = 28): -27.6 ± 109 mmol/L | Decrease from baseline in urinary sodium excretion concentration ([1]; all subgroups except responders in the control arm, one year): < 30.5 mmol/L | Mean changes from baseline in urinary magnesium excretion concentration (magnitude) [1, 9]: < 13.4 mg/dL | Mean changes from baseline in urinary potassium excretion concentration (magnitude) [1, 9]: < 6.4 mmol/L | changes from baseline in urinary electrolyte excretion concentrations of magnesium, potassium, and sodium ([1]; at the studied dose, regardless of response to treatment): not clinically meaningful | Potassium urinary excretion concentration, change from baseline, mean ± SEM ([1]; eGFR decrease cohort, n = 28): -4.58 ± 4.648 mmol/L | Sodium urinary excretion concentration, change from baseline, mean ± SEM ([1]; eGFR decrease cohort, n = 28): -30.5 ± 11.92 mmol/L | complete or partial remission at reduced dosage (LN [2]; dosage lowered to 7.9 mg BID quite early in the treatment): Substantial numbers of subjects showed complete or partial remission | remission at reduced dosage (LN [2]; dosage reduced almost immediately to 15.8 mg BID): a substantial portion of subjects showed substantial remission | complete renal response rate (CRR) ([3]; one year of treatment, added to MMF and low-dose steroids): 43.7% | complete renal response, OR vs control ([3]; one year, P<0.0001): 2.76 | Patients with Dose Reduction (LN [4]; [10]): 47 (53.4) n(%) | Patients with no Dose Reduction (LN [4]; [10]): 41 (46.6) n(%) | Patients with Dose Reduction (LN [4]; [11]): 53 (60.2) n(%) | Patients with no Dose Reduction (LN [4]; [11]): 35 (39.8) n(%) | Patients with CR at 24 weeks, percent (LN [4]; [12]): (27.7) % | Patients with CR at 48 weeks, percent (LN [4]; [12]): (45.3) % | Patients with PR at 24 weeks, number (LN [4]; [12]): 34 n | Patients with PR at 24 weeks, percent (LN [4]; [12]): (72.3) % | Patients with PR at 48 weeks, percent (LN [4]; [12]): (77.4) % | Patients with CR at 24 weeks (LN [4]; High Dose 39.5 mg BID): 11 (26.8) n(%) | Patients with CR at 48 weeks (LN [4]; High Dose 39.5 mg BID): 11 (31.4) n(%) | Patients with PR at 24 weeks (LN [4]; High Dose 39.5 mg BID): 24 (58.5) n(%) | Patients with PR at 48 weeks (LN [4]; High Dose 39.5 mg BID): 22 (62.9) n(%) | Patients with no Dose Reduction (LN [4]; Low Dose 23.7 mg BID, 24 weeks, n=89): 50 (56.2) n(%) | Patients with Dose Reduction (LN [4]; [13]): 46 (51.7) n(%) | Patients with no Dose Reduction (LN [4]; [13]): 43 (48.3) n(%) | Patients with CR at 24 weeks, percent (LN [4]; [14]): (35.9) % | Patients with CR at 48 weeks, percent (LN [4]; [14]): (52.2) % | Patients with PR at 24 weeks, percent (LN [4]; [14]): (71.8) % | Patients with PR at 48 weeks, number (LN [4]; [14]): 35 n | Patients with PR at 48 weeks, percent (LN [4]; [14]): (76.1) % | Patients with CR at 24 weeks (LN [4]; Low Dose 23.7 mg BID): 15 (30.0) n(%) | Patients with CR at 48 weeks (LN [4]; Low Dose 23.7 mg BID): 20 (46.5) n(%) | Patients with PR at 24 weeks (LN [4]; Low Dose 23.7 mg BID): 34 (68.0) n(%) | Patients with PR at 48 weeks (LN [4]; Low Dose 23.7 mg BID): 26 (60.5) n(%) | patients showing CR at 24 weeks (LN [4]; [15]): 32.6% | patients showing PR at 24 weeks (LN [4]; [15]): 70% | Mean serum electrolyte concentrations [5]: within normal ranges | withdrawals ([6]; continuation study): 12.9% | deaths in the treated group ([6]; continuation study, four deaths in the active control group): no deaths | Adverse Event Leading to Voclosporin/Placebo Discontinuation ([6]; n = 116): 10.3% | Disease-Related Adverse Event ([6]; n = 116): 51.7% | Treatment-Related Adverse Event ([6]; n = 116): 27.6% | Treatment-Related Serious Adverse Event ([6]; n = 116): 0.9% | Any Adverse Event ([6]; n = 116, 23.7 mg twice daily + MMF + low-dose steroids): 88.8% | tolerability ([6]; up to three years of treatment): well tolerated with no unexpected safety signals observed | complete renal response rate ([7]; 23.7 mg twice daily + MMF + low-dose steroids): 40.8% | complete renal response, OR vs MMF and low-dose steroids only ([7]; p<0.0001): 2.65 | Corrected eGFR, mean ([8]; Month 12, 23.7 mg twice daily + MMF + low-dose steroids): 80.7 mL/min/1.73 m^2 | UPCR, mean ([8]; Month 12): 0.86 mg/mg | mean UPCR versus control ([8]; all time points during the three years): lower | increase from baseline eGFR, compared to the active control group ([8]; at 36 months): +2.7 mL/min | mean estimated glomerular filtration rate (eGFR) over time ([8]; over 36 months, 116 subjects): stable over 36 months | Corrected eGFR, mean ([8]; pre-treatment Baseline): 79.0 mL/min/1.73 m^2 | UPCR, mean ([8]; pre-treatment Baseline): 3.941 mg/mg | HDL cholesterol, Change from Baseline to One Year, mean (subjects with LN; 23.7 mg BID arm): -5.9 mg/dL | LDL cholesterol, Change from Baseline to One Year, mean (subjects with LN; 23.7 mg BID arm): -57.4 mg/dL | Total cholesterol, Change from Baseline to One Year, mean (subjects with LN; 23.7 mg BID arm): -82.6 mg/dL | Triglycerides, Change from Baseline to One Year, mean (subjects with LN; 23.7 mg BID arm): -74.1 mg/dL | LDL cholesterol, observed, mean (subjects with LN; Baseline, 23.7 mg BID arm, normal range 50 to 130): 174.0 mg/dL | Triglycerides, observed, mean (subjects with LN; Baseline, 23.7 mg BID arm, normal range 50 to 150): 239.6 mg/dL | Total cholesterol, observed, mean (subjects with LN; Baseline, 23.7 mg BID arm, normal range 100 to 200): 288.8 mg/dL | LDL cholesterol, observed, mean (subjects with LN; One Year, 23.7 mg BID arm): 114.3 mg/dL | Total cholesterol, observed, mean (subjects with LN; One Year, 23.7 mg BID arm): 196.6 mg/dL | Triglycerides, observed, mean (subjects with LN; One Year, 23.7 mg BID arm): 148.4 mg/dL | percentage of subjects with normal triglycerides (subjects with LN; at baseline): 32.3% | percentage of subjects with normal triglycerides (subjects with LN; at one year): 56.1% | increase in percentage of patients with total cholesterol in the normal range (subjects with LN; baseline to one year): about 42% | increase in percentage with normal LDL (subjects with LN; baseline to one year): about 42% | HDL cholesterol, LS Mean Difference Voclosporin vs Control (subjects with LN; [16]): -0.6 mg/dL | LDL cholesterol, LS Mean Difference Voclosporin vs Control (subjects with LN; [16]): -10.3 mg/dL | Total cholesterol, LS Mean Difference Voclosporin vs Control (subjects with LN; [16]): -15.1 mg/dL | Triglycerides, LS Mean Difference Voclosporin vs Control (subjects with LN; [16]): -15.9 mg/dL | Mean HDL levels over the study (subjects with LN; within the normal range at baseline, both arms): remained stable throughout the study
